# What was measured:
# TG2 level = TG2 level immunoblot, SCC-13 spheroids; assay type: cell-based, human; conditions: 20 μM, 48 hours
# Protocol: In (A), SCC-13 cells (40,000) were plated in non-adherent six well dishes, grown for 8 days in spheroid medium, and then NC9 was added and spheroid number was monitored at 0-48 hours. In (B), spheroids were grown for 10 days, treated for 48 hours with indicated level of NC9 and photographed. In (C), SCC-13 cells were plated at 40,000 cells per well in non-adherent six well dishes and after 10 days the spheroids were treated with 0-20 μM NC9 for 0-72 hours before trypan blue exclusion viability assay. In (D), SCC-13 spheroids were grown for 10 days, treated with 0 or 20 μM NC9 for 48 hours, and TG2 level was assayed by immunoblot. In (E), SCC-13 cells were grown as monolayers in spheroid medium and TG2 activity was monitored by FC incorporation assay as outlined in the Materials and Methods for Example 7. In (F), SCC-13 cell 8 day spheroids were treated with […] NC9 and cells were harvested at the indicated times for immunoblot detection of procaspase 3 and cleaved caspase 3. In all panels, the values are mean±SEM, n=3, p<0.05.
# TG3a = target: T1, TG3a (Homo sapiens, UniProt Q08188); experiment: Fluorescence isopeptidase activity assay (A101 probe), TG3a; assay type: biochemical
# T1 construct: purchased Zedira
# T1 sequence (Q08188 2-467 limits assumed): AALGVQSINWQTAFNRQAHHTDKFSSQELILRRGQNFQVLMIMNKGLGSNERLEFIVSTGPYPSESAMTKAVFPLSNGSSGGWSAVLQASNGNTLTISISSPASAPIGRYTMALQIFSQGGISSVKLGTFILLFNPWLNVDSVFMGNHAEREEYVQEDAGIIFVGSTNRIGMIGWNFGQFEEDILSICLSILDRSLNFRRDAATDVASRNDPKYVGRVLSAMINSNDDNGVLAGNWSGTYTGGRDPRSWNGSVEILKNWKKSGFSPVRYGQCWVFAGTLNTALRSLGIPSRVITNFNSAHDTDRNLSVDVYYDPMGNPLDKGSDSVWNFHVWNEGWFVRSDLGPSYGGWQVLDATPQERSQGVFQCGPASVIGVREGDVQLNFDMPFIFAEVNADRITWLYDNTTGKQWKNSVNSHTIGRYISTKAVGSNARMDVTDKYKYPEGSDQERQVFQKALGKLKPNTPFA
# T1 sequence (Q08188 468-693 partner limits assumed): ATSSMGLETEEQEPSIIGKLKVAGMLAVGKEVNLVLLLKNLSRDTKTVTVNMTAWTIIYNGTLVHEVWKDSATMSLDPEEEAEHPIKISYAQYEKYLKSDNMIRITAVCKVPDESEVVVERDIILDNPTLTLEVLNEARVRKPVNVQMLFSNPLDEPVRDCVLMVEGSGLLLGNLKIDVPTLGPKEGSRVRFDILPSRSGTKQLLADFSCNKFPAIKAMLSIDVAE
# Protocol: Selectivity of certain irreversible inhibitors over other members of the transglutaminase family was assessed. […] Inhibitors were tested using a continuous colorimetric assay (Leblanc, A. et al., Biochemistry (2001), 40 (28): 8335-8342) for hTG1 and hTG6 and a commercially available continuous fluorescent assay that utilizes a peptidic FRET quenched substrate (Oertel, K. et al., Anal. Biochem. (2007), 367 (2): 152-158; Király, R. et al., Amino Acids (2016), 48 (1): 31-40) for the other transglutaminases, FXIIIa and hTG3. The rate constant of enzyme inactivation (kobs) for a specific concentration of inhibitor was obtained using Kitz and Wilson conditions (Kitz, R. et al., J. Biol. Chem. (1962), 237: 3245-49). Inhibitor concentrations were adjusted to account for competition with substrates in each enzymatic reaction.
# Fluorescence isopeptidase activity assay. The isopeptidase activity of pre-activated TG3a and FXIIIa (purchased from Zedira) was measured via a fluorescence-based assay (Király, R. et al., Amino Acids (2016), 48 (1): 31-40) using the commercially available peptidic FRET quenched probe A101 from Zedira. Briefly, the final concentration in the reaction mixture contained 50 mM Tris (pH 7.0), 10 mM CaCl2, 100 mM NaCl, 2.8 mM TCEP, 50 μM A101 and 14 mM H-Gly-OMe. The reaction was monitored at 25° C. using a BioTek Synergy 4 plate reader (Ex/Em: 318/413 nm).
# NFκB = NFκB subcellular distribution (cell fractionation, immunoblot), ECS cells; assay type: cell-based, human; conditions: 8 day spheroids, 20 μM, 48 h
# Protocol: In (A), it is shown that ECS cells have reduced NFκB-p65 levels. SCC-13 cells (40,000) were grown in spheroid medium in attached (monolayer) and non-attached (spheroid, ECS cells) conditions. Lysates were prepared after 10 d in culture for electrophoresis and detection of indicated epitopes. In (B). […] and SCC13-TG2-shRNA2 cells were grown in spheroid medium as monolayers. After 10 d in culture, lysates were collected for detection of TG2 and NFκB-p65. In (C), SCC-13 cells were electroporated with control-, NFκB-p65- or TG2-siRNA and then cultured as monolayers in spheroid medium. After 72 h extracts were prepared to assay TG2, NFκB-p65 and EMT markers. In (D), SCC-13 cells were electroporated with empty vector Control- or TG2-siRNA and plated in monolayer culture. The following day cells were fixed, permeabilized and incubated with antibodies specific for the indicated epitopes. […] In (E), an equal number of cell equivalents of total (T), nuclear (N), and cytosolic (C) extract, prepared from SCC13-Control-shRNA and SCC13-TG2-shRNA2 (TG2 knockdown) cells, was electrophoresed for immunoblot detection of NFκB, histone 3 (nuclear marker) and β-actin (cytoplasmic marker). […] In (F), total (T), nuclear (N), and cytosolic (C) extract was prepared from 8 day spheroids (ECS cells) treated with 0 or 20 μM NC9 for 48 h. […]
# 1321N cells = experiment: Agarose colony formation assay, TG2-null 1321N cells; assay type: cell-based, human; conditions: 10 μM, 2 weeks
# Protocol: Agarose colony formation assay. Agarose colony formation assay was conducted as described (Horman, S. R. et al., J. Biomol. Screen 18(10):1298-308, 2013; Zhang, K. et al., Tumour Biol. 35(3):2537-48, 2014) using 6-well plates and 5,000 cells in each well. 10 μM NC9 or DMSO was added to every layer at the start of the experiments. 2 mL liquid MEM containing 10 μM NC9 or DMSO was used to cover the agarose and it was changed 3 times a week. Colony growth was monitored every day and at the end of 10-15 days, the colonies were fixed with 4% paraformaldehyde, stained with 0.005% crystal violet, washed with PBS twice and 40 random pictures were taken from each treatment group. A person blinded for the treatments measured the area of the colonies using ImageJ program and the volumes were calculated from the area data under the assumption that the colonies are perfect spheres. The volumes were used to compare the effect of NC9 on colony growth.
smiles,measurement,setting,value
C=CC(=O)NCCCC[C@H](NC(=O)OCc1ccccc1)C(=O)NCCOCCOCCNS(=O)(=O)c1cccc2c(N(C)C)cccc12 [NC9],TG2 level,TG2 level,not associated with reduced TG2 level
same,"kobs (10^−3 min^−1), TG3a","TG3a; Table 9, Kitz and Wilson conditions",1.01 ± 0.09 10^−3 min^−1
same,selectivity towards hTG2 over hTG3a,TG3a; from kobs,about 390 fold
same,cytoplasmic/nuclear distribution of NFκB,NFκB,not altered
same,"colony growth, 1321N",1321N cells,no effect
